The source of these data is US20250136606A1, “MODULATORS OF TRPML, THEIR COMPOSITIONS AND METHODS OF USE” (Caraway Therapeutics, Inc., priority 2021, published 2025).

Like-named read-outs stand apart in the source and are kept apart here. Some results are limits rather than exact numbers.

The target of one test is TRPML1 (Homo sapiens, UniProt Q9GZU1). The test is described as follows: Fluorescent TRPML1 assay (Fluo4-AM calcium fluorescence in doxycycline-induced HEK-293 Trex cells). It is filed as cell-based. Summed up:
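hTRPML1 (mutated for cell-surface expression) in HEK-293 Trex, dox 0.5 ug/mL o/n; Fluo4-AM 1 uM ~60 min, then ~60 min de-esterification, dark; modified Ringer's + 10 mM Ca. Cmpds 20 uM–6 nM final, half-log, n=3. Ex480/Em540; % activity vs ctrls; EC50 by nonlinear regression.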

Another test has as its target T1, TRPML3 (Homo sapiens, UniProt Q8TDD5).
T1 construct: expressed in transfected cells
T1 sequence (Q8TDD5 1-553): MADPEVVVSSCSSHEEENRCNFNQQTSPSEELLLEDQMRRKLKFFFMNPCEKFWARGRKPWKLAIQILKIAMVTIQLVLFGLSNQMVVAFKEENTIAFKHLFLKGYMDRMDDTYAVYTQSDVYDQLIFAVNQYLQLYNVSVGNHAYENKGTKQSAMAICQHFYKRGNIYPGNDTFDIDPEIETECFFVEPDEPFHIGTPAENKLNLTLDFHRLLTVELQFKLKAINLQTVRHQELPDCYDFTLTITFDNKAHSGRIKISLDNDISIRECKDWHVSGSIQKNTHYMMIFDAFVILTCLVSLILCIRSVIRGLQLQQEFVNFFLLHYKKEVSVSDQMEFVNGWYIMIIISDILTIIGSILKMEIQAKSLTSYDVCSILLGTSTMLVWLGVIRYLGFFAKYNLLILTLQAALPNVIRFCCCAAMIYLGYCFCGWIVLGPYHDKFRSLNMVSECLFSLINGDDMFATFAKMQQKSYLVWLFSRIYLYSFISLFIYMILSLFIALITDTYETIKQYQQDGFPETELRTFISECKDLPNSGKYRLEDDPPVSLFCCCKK
Briefly: Fluorescent TRPML3 assay (performed as for TRPML1, substituting the TRPML3 subtype). It is filed as cell-based. As for the experimental part:
HEK-293 Trex cells were stably transfected with a construct consisting of the human coding sequence for TRPML1 cloned into the […] plasmid pCDNA5 T/O. Mutations were introduced into the TRPML1 sequence to facilitate expression on the cell surface (Silvia Vergarajauregui, Rosa Puertollano, Traffic. 2006 March; 7(3): 337-353). Briefly, the cells are cultured in 150 mm round tissue culture dishes containing 20 mL of media. The day before the assay the cells are rinsed with DPBS-Ca—Mg and then treated briefly with Trypsin-EDTA. The Trypsin-EDTA is diluted with growth media, and cells are counted. 38×10^6 cells are re-plated into 150 mm round tissue culture dishes in media containing 0.5 ug/mL doxycycline to induce expression of hTRPML1.
The day of the experiment cells are lifted from the plates as above and collected by centrifugation. The cells are then suspended in dye loading buffer consisting of Ringer's solution supplemented with 0.1% Pluronic Acid and 1 micromolar Fluo4-AM dye. Cells are loaded for ˜60 minutes in the dark with occasional mixing. The cells are collected by centrifugation, the loading media aspirated, and the cells resuspended in 25 mL Ringer's solution and incubated ˜60 minutes in the dark. The cells are again collected by centrifugation, rinsed in Ringer's Solution and resuspended to […] in modified Ringer's solution containing 10 mM calcium.
Compounds are dissolved to a concentration of 10 millimolar with DMSO. Compound plates are created by dispensing compounds into 384 well black wall clear bottom plates (Greiner 781091). Positive and negative controls are included on each plate. Typically, different amounts of each compound are tested ranging from 100 nanoMoles (20 micromolar final concentration) decreasing in half-log steps to 31 picoMoles (6 nanomolar final concentration). Each concentration is typically tested in triplicate.
50 microliters of dye-loaded cells are dispensed into each well of the compound assay plate created above. The fluorescence in each well is then determined with an excitation wavelength of 480 nm and an emission wavelength of 540 nm using either a Molecular Devices SpectraMax multimode plate reader or a Hamamatsu FDSS/uCell plate imager.
The resulting fluorescence for each well is exported as an ascii file and loaded into our LIMS for analysis. The percent activity of each compound at each concentration is determined by comparison to the positive and negative control wells included in each plate.
TRPML2 and TRPML3 Assays Assays for TRPML2 and TRPML3 were performed as above for TRPML1, by substituting the appropriate TRPML2 or TRPML3 subtype for the TRPML1.
EC50 values were calculated using a non-linear regression of Prism. In the table, “A” indicates an EC50 of less than 100 nM, “B” indicates an EC50 range from 100 nM to 500 nM; “C” indicates an EC50 range from 500 nM to 2 μM; and “D” indicates an EC50 greater than 2 μM.

TRPML1, sequence (Q9GZU1 whole entry L15A/L16A/L577A/L578A, form open): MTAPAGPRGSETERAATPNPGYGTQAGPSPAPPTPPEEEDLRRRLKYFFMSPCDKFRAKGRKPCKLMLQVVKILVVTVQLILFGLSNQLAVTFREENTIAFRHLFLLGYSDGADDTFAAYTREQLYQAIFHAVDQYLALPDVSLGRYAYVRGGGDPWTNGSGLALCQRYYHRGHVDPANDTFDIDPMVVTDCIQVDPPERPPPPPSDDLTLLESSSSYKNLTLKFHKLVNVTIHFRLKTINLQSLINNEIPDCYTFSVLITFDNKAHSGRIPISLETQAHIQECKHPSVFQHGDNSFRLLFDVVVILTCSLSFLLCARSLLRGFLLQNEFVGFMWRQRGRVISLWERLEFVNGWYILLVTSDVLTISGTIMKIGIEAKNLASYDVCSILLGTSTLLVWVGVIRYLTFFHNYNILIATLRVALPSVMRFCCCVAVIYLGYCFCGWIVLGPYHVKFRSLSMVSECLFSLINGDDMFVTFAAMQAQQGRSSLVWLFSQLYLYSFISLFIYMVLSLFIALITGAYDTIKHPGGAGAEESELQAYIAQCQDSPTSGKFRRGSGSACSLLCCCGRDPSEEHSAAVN

For the molecule `C[C@@H]1CN(c2ncnc3c2c(C(F)(F)F)cn3[C@H]2CCCOC2)[C@@H](C)CN1C(=O)OC(C)(C)C` [Compound 631, tert-butyl (2R,5S)-2,5-dimethyl-4-(7-((S)-tetrahydro-2H-pyran-3-yl)-5-(trifluoromethyl)-7H-pyrrolo[2,3-d]pyrimidin-4-yl)piperazine-1-carboxylate], the EC50 (usually the concentration needed to bring the measured effect to its halfway point) on TRPML1 was 500 to 2000 nM; at TRPML3 it was above 2000 nM.
Turning to `C[C@H]1CN(C(=O)OC(C)(C)C)CCN1c1ncnc2c1c(N1CCCC1)cn2C12CCC(CC1)CC2` [Compound 383, tert-butyl (S)-4-(7-(bicyclo[2.2.2]octan-1-yl)-5-(pyrrolidin-1-yl)-7H-pyrrolo[2,3-d]pyrimidin-4-yl)-3-methylpiperazine-1-carboxylate], the EC50 at TRPML1 (fluorescent calcium assay) was 100 to 500 nM; on TRPML3 (fluorescent calcium assay), above 2000 nM.
On to `CC(C)(C)OC(=O)N1CCN(c2ncnc3c2c(C2CC2)cn3-c2cc(C#N)ccn2)CC1(C)C` [Compound 395, tert-butyl 4-(7-(4-cyanopyridin-2-yl)-5-cyclopropyl-7H-pyrrolo[2,3-d]pyrimidin-4-yl)-2,2-dimethylpiperazine-1-carboxylate], for which the EC50 at TRPML1 (fluorescent calcium assay) and at TRPML3 (fluorescent calcium assay) was below 100 nM in each case.
`C[C@@H]1CN(C(=O)OC(C)(C)C)CCN1c1ncnc2c1c(C1CCOCC1)cn2-c1cc(F)cc(F)c1` [Compound 467, tert-butyl (R)-4-(7-(3,5-difluorophenyl)-5-(tetrahydro-2H-pyran-4-yl)-7H-pyrrolo[2,3-d]pyrimidin-4-yl)-3-methylpiperazine-1-carboxylate]: the EC50 at TRPML1 (fluorescent calcium assay) is above 2000 nM; at TRPML3 (fluorescent calcium assay), 500 to 2000 nM.
Consider `Cc1c(C(F)(F)F)c2c(N3C[C@@H](C)N(C(=O)OC(C)(C)C)C[C@@H]3C)ncnc2n1-c1cc(C#N)ccn1` [Compound 531, tert-butyl (2R,5S)-4-(7-(4-cyanopyridin-2-yl)-6-methyl-5-(trifluoromethyl)-7H-pyrrolo[2,3-d]pyrimidin-4-yl)-2,5-dimethylpiperazine-1-carboxylate], for which the EC50 on TRPML1 and on TRPML3 was 100 to 500 nM in each case.
Consider `C[C@@H]1CN(c2ncnc3c2c(C(F)F)cn3C2CCCC2)[C@@H](C)CN1C(=O)OC(C)(C)C` [Compound 628, tert-butyl (2R,5S)-4-(7-cyclopentyl-5-(difluoromethyl)-7H-pyrrolo[2,3-d]pyrimidin-4-yl)-2,5-dimethylpiperazine-1-carboxylate], for which the EC50 at TRPML1 and on TRPML3 was 500 to 2000 nM throughout.
For the molecule `CC(C)(C)OC(=O)N1CCN(c2ncnc3c2c(C2CC2)cn3-c2cc(C#N)ccn2)CC12CC2` [Compound 396, tert-butyl 7-(7-(4-cyanopyridin-2-yl)-5-cyclopropyl-7H-pyrrolo[2,3-d]pyrimidin-4-yl)-4,7-diazaspiro[2.5]octane-4-carboxylate], the EC50 was 100 to 500 nM on TRPML1 (fluorescent calcium assay) and below 100 nM at TRPML3 (fluorescent calcium assay).
With `C[C@@H]1CN(c2ncnc3c2c(C(F)(F)F)cn3C2CCOCC2)[C@@H](C)CN1C(=O)OC(C)(C)C` [Compound 630, tert-butyl (2R,5S)-2,5-dimethyl-4-(7-(tetrahydro-2H-pyran-4-yl)-5-(trifluoromethyl)-7H-pyrrolo[2,3-d]pyrimidin-4-yl)piperazine-1-carboxylate], the EC50 at TRPML1 was 500 to 2000 nM; at TRPML3, above 2000 nM.
Regarding `C[C@@H]1CN(c2ncnc3c2c(C(F)F)cn3C2CCC(C#N)C2)[C@@H](C)CN1C(=O)OC(C)(C)C` (stereo partly shown) [Compound 634], the EC50 at TRPML1 and at TRPML3 was 500 to 2000 nM each time.
Regarding `C[C@@H]1CN(c2ncnc3c2c(C(F)(F)F)cn3-c2cc(C#N)ccn2)[C@@H](C)CN1C(=O)OC1CC1` [Compound 515, cyclopropyl (2R,5S)-4-(7-(4-cyanopyridin-2-yl)-5-(trifluoromethyl)-7H-pyrrolo[2,3-d]pyrimidin-4-yl)-2,5-dimethylpiperazine-1-carboxylate], the EC50 at TRPML1 and at TRPML3 was below 100 nM in each case.
Take `C[C@@H]1CN(c2ncnc3c2c(C(F)F)cn3-c2cc(F)ccn2)[C@@H](C)CN1C(=O)OC1(C)CC1` [Compound 611, 1-methylcyclopropyl (2R,5S)-4-(5-(difluoromethyl)-7-(4-fluoropyridin-2-yl)-7H-pyrrolo[2,3-d]pyrimidin-4-yl)-2,5-dimethylpiperazine-1-carboxylate]: the EC50 on TRPML1 and at TRPML3 was 100 to 500 nM throughout.
Regarding `C[C@@H]1CN(C(=O)OC(C)(C)C)CCN1c1ncnc2c1c(N1CCOCC1)cn2-c1cc(F)cc(F)c1` [Compound 227, tert-Butyl (R)-4-(7-(3,5-difluorophenyl)-5-morpholino-7H-pyrrolo[2,3-d]pyrimidin-4-yl)-3-methylpiperazine-1-carboxylate], the results for the EC50 at TRPML1 (fluorescent calcium assay) and at TRPML3 (fluorescent calcium assay) were 500 to 2000 nM and 100 to 500 nM, respectively.
Turning to `Cc1cn(-c2cncnc2)c2ncnc(N3CCN(C(=O)OC(C)(C)C)C[C@@H]3C)c12` [Compound 691, tert-butyl (S)-3-methyl-4-(5-methyl-7-(pyrimidin-5-yl)-7H-pyrrolo[2,3-d]pyrimidin-4-yl)piperazine-1-carboxylate], the EC50 on TRPML1 and at TRPML3 was 500 to 2000 nM each time.
For `CCOC(=O)N1C[C@H](C)N(c2ncnc3c2c(C2CC2)cn3-c2cccc(Cl)c2)[C@@H](C)C1` [Compound 189, ethyl (3S,5S)-4-(7-(3-chlorophenyl)-5-cyclopropyl-7H-pyrrolo[2,3-d]pyrimidin-4-yl)-3,5-dimethylpiperazine-1-carboxylate], the EC50 at TRPML1 (fluorescent calcium assay) and at TRPML3 (fluorescent calcium assay) was 100 to 500 nM each time.
Take `CCOC(=O)N1C[C@H](C)N(c2ncnc3c2c(-c2cnccn2)cn3-c2cccc(Cl)c2)C[C@H]1C` [Compound 125, Ethyl (2R,5S)-4-(7-(3-chlorophenyl)-5-(pyrazin-2-yl)-7H-pyrrolo[2,3-d]pyrimidin-4-yl)-2,5-dimethylpiperazine-1-carboxylate]: the EC50 at TRPML1 (fluorescent calcium assay) and on TRPML3 (fluorescent calcium assay) was 500 to 2000 nM each time.
`CC(C)(C)OC(=O)N1CCN(c2ncnc3c2c(-c2ccccc2F)cn3-c2nccc(C#N)n2)CC1` [Compound 459]: the EC50 at TRPML1 (fluorescent calcium assay) and on TRPML3 (fluorescent calcium assay) was below 100 nM each time.
Consider `C[C@H]1CN(C(=O)OC(C)(C)C)CCN1c1ncnc2c1c(N1CCOCC1)cn2-c1cc(C#N)ccn1` [Compound 380, tert-butyl (S)-4-(7-(4-cyanopyridin-2-yl)-5-morpholino-7H-pyrrolo[2,3-d]pyrimidin-4-yl)-3-methylpiperazine-1-carboxylate], for which the results for the EC50 at TRPML1 (fluorescent calcium assay) and at TRPML3 (fluorescent calcium assay) were 100 to 500 nM and 500 to 2000 nM, respectively.
